Reference: ChEMBL document CHEMBL1140853, “The stereochemistry of N-methyl and aryl substituents determine the biological activities of 3-aryl-8-methyl-8-azabicyclo[3.2.1]oct-2,3-enes” (Bioorg Med Chem, 2009)

Experiments:
Homo sapiens [1] = species: Homo sapiens; test: Selectivity for human SERT over human NET
Homo sapiens [2] = species: Homo sapiens; test: Selectivity for human SERT over human DAT

CN1C2C=C(c3cccc4ccccc34)CC1CC2 (configuration not stated)
Ratio (Homo sapiens [1]): 94.4
Ratio (Homo sapiens [2]): 11.6

CN1C2C=C(c3cccc(-c4ccccc4)c3)CC1CC2 (configuration not stated)
Ratio (Homo sapiens [1]): 34
Ratio (Homo sapiens [2]): 10.8

CN1C2C=C(c3ccccc3-c3ccccc3)CC1CC2 (configuration not stated)
Ratio (Homo sapiens [1]): 3.8
Ratio (Homo sapiens [2]): 5.4

CN1C2C=C(C3c4ccccc4-c4ccccc43)CC1CC2 (configuration not stated)
Ratio (Homo sapiens [1]): 120
Ratio (Homo sapiens [2]): 13.6

CN1C2C=C(c3c[nH]c4ccccc34)CC1CC2 (configuration not stated)
Ratio (Homo sapiens [1]): 54
Ratio (Homo sapiens [2]): 8.3

CN1C2C=C(c3ccc4c(c3)Cc3ccccc3-4)CC1CC2 (configuration not stated)
Ratio (Homo sapiens [1]): 232
Ratio (Homo sapiens [2]): 52.2
